Structures are written as SMILES.

By IC50 is commonly meant the concentration that inhibits the measured activity by half.

Assay [1] has as its target T1, PIP4K2A (full length protein, SignalChem) (Homo sapiens, UniProt P48426).
T1 construct: 4 nM PIP4K2A (full length protein, SignalChem); purchased SignalChem
T1 sequence (P48426 1-406): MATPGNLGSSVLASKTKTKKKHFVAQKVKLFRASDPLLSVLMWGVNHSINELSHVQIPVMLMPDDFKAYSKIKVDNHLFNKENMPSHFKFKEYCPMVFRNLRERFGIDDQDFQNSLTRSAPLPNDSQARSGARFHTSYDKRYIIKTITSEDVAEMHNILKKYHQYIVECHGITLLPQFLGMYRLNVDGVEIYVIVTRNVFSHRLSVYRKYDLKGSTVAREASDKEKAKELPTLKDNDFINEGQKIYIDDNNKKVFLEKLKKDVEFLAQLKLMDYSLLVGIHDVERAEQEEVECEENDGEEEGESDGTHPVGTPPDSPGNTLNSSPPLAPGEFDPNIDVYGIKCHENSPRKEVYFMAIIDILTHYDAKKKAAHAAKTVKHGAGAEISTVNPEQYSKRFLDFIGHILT
The assay can be described thus: Kinase Assay PIP4K2 A (Sprint); ADP-Glo biochemical assay. To be noted: Table 2; compounds listed under IC50 range headings. A digest of the protocol: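 Compounds (10-point, 3-fold dilutions) were pre-incubated 15 min at RT with an enzyme/substrate mix of 4 nM full-length PIP4K2A and 100 μM PI(5)P diC8 in 20 mM MOPS pH 7.2, 25 mM MgCl2, 0.005% Tween 20. A 60 μM ATP solution was added, reaction 1 h RT; ADP read by ADP-Glo luminescence, IC50 fitted from % inhibition vs DMSO.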

Another assay has as its target T2, GST tagged PIP4KtypeIIA (Homo sapiens, UniProt P48426).
T2 construct: made in house; host or cells: E. coli
T2 sequence (P48426 1-406): T1 sequence (P48426 1-406)
The assay can be described thus: ADP-glo kinase assay PIP4K 2A (PIP4KtypeIIA inhibition assay). The format is biochemical. To be noted: Table 3; compounds listed under IC50 range headings; 10 uM ATP, 0.5 nM PIP4KIIA. The method, boiled down:
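E. coli-expressed GST-PIP4KtypeIIA (0.5 nM final) was preincubated 1 h at 27 °C with compound (up to 4.8 μM, 5% DMSO) in PI5P/DOPE lipid in 50 mM HEPES pH 7.3 with 10 mM MgCl2. The reaction was started with 10 μM ATP (final) and run 1 h. ADP was read by ADP-Glo luminescence via a calibration curve, and IC50 was taken from % residual activity.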
On the technique in general: ADP-Glo turns the ADP formed in a reaction into a luminescent signal.

The next assay concerns the target T3, GST tagged PIP4KtypeIIB (Homo sapiens, UniProt P78356).
T3 construct: made in house; host or cells: E. coli
T3 sequence (P78356 1-416): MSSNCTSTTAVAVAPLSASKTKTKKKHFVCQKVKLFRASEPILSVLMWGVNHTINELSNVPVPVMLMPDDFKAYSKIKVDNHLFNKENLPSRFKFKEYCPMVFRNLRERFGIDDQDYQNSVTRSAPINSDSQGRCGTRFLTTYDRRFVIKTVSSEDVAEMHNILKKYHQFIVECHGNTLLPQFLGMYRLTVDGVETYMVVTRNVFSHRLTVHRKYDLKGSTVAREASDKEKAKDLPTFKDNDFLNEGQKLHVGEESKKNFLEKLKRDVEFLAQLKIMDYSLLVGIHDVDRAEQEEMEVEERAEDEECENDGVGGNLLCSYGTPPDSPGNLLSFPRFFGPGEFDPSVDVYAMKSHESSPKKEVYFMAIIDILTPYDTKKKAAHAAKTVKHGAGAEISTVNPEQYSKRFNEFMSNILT
The assay can be described thus: Trans-FI P kinase assay PIP4K2B (PIP4KtypeIIB inhibition assay). It is filed as biochemical. To be noted: Table 4; compounds listed under IC50 range headings; 100 uM GTP, 5 nM PIP4KIIB; read-out: Trans-FI P kinase assays: PIP4K2B IC50. A digest of the protocol: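 Purified GST-PIP4KIIB (5 nM final), 1 h preincubation with compound at 27 C, then 2 h reaction with 100 uM GTP and 80 uM PI5P plus DOPE carrier lipid in pH 7.3 HEPES/MgCl2/Triton buffer with 5% DMSO. GDP read by Transcreener FI fluorescence against a calibration curve; IC50 from % no-inhibitor activity vs log concentration.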

For `CN(C)C(=O)c1ccc(-c2cc(-c3ccnc4nc[nH]c34)cnc2N)nc1` [Example 213, 2′-amino-5′-(1H-imidazo[4,5-b]pyridin-7-yl)-N,N-dimethyl-[2,3′-bipyridine]-5-carboxamide], the concentration for half-maximal inhibition (IC50) lay within 100 to 1000 nM in assay [1], 2500 to 5000 nM at GST tagged PIP4KtypeIIA and 1000 to 2500 nM at GST tagged PIP4KtypeIIB.

Regarding `Cn1cc(-c2cncc(-c3ccc(N4CCCC4=O)cc3)c2)c2cc(N3CCCC3=O)cnc21` [Example 77, 1-(1-methyl-3-(5-(4-(2-oxopyrrolidin-1-yl)phenyl)pyridin-3-yl)-1H-pyrrolo[2,3-b]pyridin-5-yl)pyrrolidin-2-one], the results for the IC50 (in assay [1]; on GST tagged PIP4KtypeIIA; at GST tagged PIP4KtypeIIB) were 5 to 100 nM, 100 to 1000 nM and 100 to 1000 nM, respectively.

For `Nc1ncc(-c2ccnc3[nH]c(C(=O)NCC(F)(F)F)cc23)cc1-c1ccc(C(=O)NCC(F)(F)F)cn1` [Example 139, 4-(2′-amino-5-((2,2,2-trifluoroethyl)carbamoyl)-[2,3′-bipyridin]-5′-yl)-N-(2,2,2-trifluoroethyl)-1H-pyrrolo[2,3-b]pyridine-2-carboxamide], the values for the IC50 (in assay [1]; on GST tagged PIP4KtypeIIA; at GST tagged PIP4KtypeIIB) were less than 5000 nM, more than 5000 nM and 2500 to 5000 nM, respectively.

Turning to `COCc1c(-c2ccncc2)cncc1-c1ccc(N2CCCC2=O)cc1` [Example 83, 1-(4-(4-(methoxymethyl)-[3,4′-bipyridin]-5-yl)phenyl)pyrrolidin-2-one], the results for the IC50 (in assay [1]; on GST tagged PIP4KtypeIIA) were 1000 to 2500 nM and more than 5000 nM, respectively.

Turning to `Cn1cc(-c2cncc(-c3ccc(N4CCCC4=O)cc3)c2)c2cncnc21` [Example 153, 1-(4-(5-(7-methyl-7H-pyrrolo[2,3-d]pyrimidin-5-yl)pyridin-3-yl)phenyl)pyrrolidin-2-one], the IC50 in assay [1] is less than 5000 nM; at GST tagged PIP4KtypeIIA it was 10 to 100 nM.

On to `Cc1cc(N2CCCC2=O)ccc1-c1cncc(-c2ccncc2)c1` [Example 81, 1-(4-([3,4′-bipyridin]-5-yl)-3-methylphenyl)pyrrolidin-2-one], for which the IC50 was less than 5000 nM in assay [1] and 1000 to 2500 nM against GST tagged PIP4KtypeIIA.

With `O=C(NCCc1nn[nH]n1)c1cc2c(-c3cncc(-c4ccc(N5CCCC5=O)cc4)c3)ccnc2[nH]1` [Example 251, N-(2-(2H-tetrazol-5-yl)ethyl)-4-(5-(4-(2-oxopyrrolidin-1-yl)phenyl)pyridin-3-yl)-1H-pyrrolo[2,3-b]pyridine-2-carboxamide], the half-maximal inhibitory concentration (IC50) on GST tagged PIP4KtypeIIA was 100 to 1000 nM; at GST tagged PIP4KtypeIIB it was 10 to 100 nM.

With `Cc1c(-c2ccc(N3CCCC3=O)cc2)cncc1-c1cn(C)c2ncc([C@@H](C)O)cc12` (single isomer, unassigned) [196(R)], the IC50 at GST tagged PIP4KtypeIIA and at GST tagged PIP4KtypeIIB was 100 to 1000 nM in each case.

As to `CN(C)C(=O)c1ccc(-c2cc(-c3ccnc4[nH]c(C(=O)NCCN)cc34)cnc2N)nc1` [Example 133, 4-(2′-amino-5-(dimethylcarbamoyl)-[2,3′-bipyridin]-5′-yl)-N-(2-aminoethyl)-1H-pyrrolo[2,3-b]pyridine-2-carboxamide], the half-maximal inhibitory concentration (IC50) was in the range of 1000 to 2500 nM against GST tagged PIP4KtypeIIA and 100 to 1000 nM at GST tagged PIP4KtypeIIB.

`CC(C)c1cc(=O)n2ncc(-c3cncc(-c4ccc(N5CCCC5=O)cc4)c3)c2[nH]1` [Example 281, 5-isopropyl-3-(5-(4-(2-oxopyrrolidin-1-yl)phenyl)pyridin-3-yl)pyrazolo[1,5-a]pyrimidin-7(4H)-one]: the half-inhibitory concentration (IC50) on GST tagged PIP4KtypeIIA and on GST tagged PIP4KtypeIIB was 1000 to 2500 nM each time.

For `CC(C)c1c(-c2cncc(-c3ccc(N4CCCC4=O)cc3)c2)c2cc(C(=O)N(C)C)cnc2n1C` [Example 266, 2-isopropyl-N,N,1-trimethyl-3-(5-(4-(2-oxopyrrolidin-1-yl)phenyl)pyridin-3-yl)-1H-pyrrolo[2,3-b]pyridine-5-carboxamide], the IC50 against GST tagged PIP4KtypeIIA lay within 2500 to 5000 nM; at GST tagged PIP4KtypeIIB, 1000 to 2500 nM.

`COC(=O)c1c[nH]c2nccc(-c3cnc(N)c(-c4ccc(C(=O)N(C)C)cn4)c3)c12` [Example 114, methyl 4-(2′-amino-5-(dimethylcarbamoyl)-[2,3′-bipyridin]-5′-yl)-1H-pyrrolo[2,3-b]pyridine-3-carboxylate]: the IC50 in assay [1] is less than 5000 nM; against GST tagged PIP4KtypeIIA, more than 5000 nM.

With `Cc1cc(N2CCCC2=O)ccc1-c1cncc(-c2cn(C)c3ncc([C@@H](C)O)cc23)c1` (single isomer, unassigned) [197(R)], the IC50 fell in the range of 100 to 1000 nM against GST tagged PIP4KtypeIIA and 1000 to 2500 nM at GST tagged PIP4KtypeIIB.

With `CCc1c(C)[nH]c2c(-c3cncc(-c4ccc(N5CCCC5=O)cc4)c3)cnn2c1=O` [Example 288, 6-ethyl-5-methyl-3-(5-(4-(2-oxopyrrolidin-1-yl)phenyl)pyridin-3-yl)pyrazolo[1,5-a]pyrimidin-7(4H)-one], the IC50 against GST tagged PIP4KtypeIIA and at GST tagged PIP4KtypeIIB was 100 to 1000 nM in each case.

For the compound `O=C(NC1CC1c1ccccc1)c1cc2c(-c3cncc(-c4ccc(N5CCCC5=O)cc4)c3)ccnc2[nH]1` (centres unmarked) [Example 264, 4-(5-(4-(2-oxopyrrolidin-1-yl)phenyl)pyridin-3-yl)-N-(2-phenylcyclopropyl)-1H-pyrrolo[2,3-b]pyridine-2-carboxamide], the IC50 lay within 100 to 1000 nM against GST tagged PIP4KtypeIIA and 10 to 100 nM at GST tagged PIP4KtypeIIB.

With `CN(C)C(=O)c1cnc2occ(-c3cncc(-c4ccc(N5CCCC5=O)cc4)c3)c2c1` [Example 282, N,N-dimethyl-3-(5-(4-(2-oxopyrrolidin-1-yl)phenyl)pyridin-3-yl)furo[2,3-b]pyridine-5-carboxamide], the half-inhibitory concentration (IC50) on GST tagged PIP4KtypeIIA was in the range of 10 to 100 nM; on GST tagged PIP4KtypeIIB, 100 to 1000 nM.

As to `CN(C(=O)c1ccc(-c2cncc(-c3ccnc4[nH]ncc34)c2)cc1)c1cccc(-n2ccnn2)c1` [Example 206, N-(3-(1H-1,2,3-triazol-1-yl)phenyl)-4-(5-(1H-pyrazolo[3,4-b]pyridin-4-yl)pyridin-3-yl)-N-methylbenzamide], the IC50 against GST tagged PIP4KtypeIIA and at GST tagged PIP4KtypeIIB was more than 5000 nM in each case.

As for `Cc1cc(N2CCCC2=O)ccc1-c1cncc(-c2cn(C)c3ncc([C@H](C)O)cc23)c1` (single isomer, unassigned) [197(S)], the IC50 against GST tagged PIP4KtypeIIA was in the range of 100 to 1000 nM; at GST tagged PIP4KtypeIIB, 1000 to 2500 nM.

As to `CN(C)C(=O)c1cnc2c(c1)c(-c1cncc(-c3ccc(N4CCCC4=O)cc3)c1)c(C1CC1)n2C` [Example 262, 2-cyclopropyl-N,N,1-trimethyl-3-(5-(4-(2-oxopyrrolidin-1-yl)phenyl)pyridin-3-yl)-1H-pyrrolo[2,3-b]pyridine-5-carboxamide], the IC50 against GST tagged PIP4KtypeIIA was in the range of 2500 to 5000 nM; at GST tagged PIP4KtypeIIB, 100 to 1000 nM.

In the case of `O=C(NCc1ccncc1)c1cc2c(-c3cncc(-c4ccc(N5CCCC5=O)cc4)c3)ccnc2[nH]1` [Example 233, 4-(5-(4-(2-oxopyrrolidin-1-yl)phenyl)pyridin-3-yl)-N-(pyridin-4-ylmethyl)-1H-pyrrolo[2,3-b]pyridine-2-carboxamide], the IC50 fell in the range of 100 to 1000 nM against GST tagged PIP4KtypeIIA and 10 to 100 nM at GST tagged PIP4KtypeIIB.

For the compound `CCc1ccc2c(c1)N(c1ccc(-c3cncc(-c4ccnc5c4cc4n5CCN(C)C4=O)c3)cc1)C(=O)C2` [Example 151, 4-(5-(4-(6-ethyl-2-oxoindolin-1-yl)phenyl)pyridin-3-yl)-7-methyl-8,9-dihydropyrido[3′,2′:4,5]pyrrolo[1,2-a]pyrazin-6 (7H)-one], the IC50 against GST tagged PIP4KtypeIIA and on GST tagged PIP4KtypeIIB was more than 5000 nM in each case.

On to `O=C1CCCN1c1ccc(-c2cncc(-c3ccnc4c3cc3n4CCN(c4ccccn4)C3=O)c2)cc1` [Example 207, 4-(5-(4-(2-oxopyrrolidin-1-yl)phenyl)pyridin-3-yl)-7-(pyridin-2-yl)-8,9-dihydropyrido[3′,2′:4,5]pyrrolo[1,2-a]pyrazin-6(7H)-one], for which the concentration for half-maximal inhibition (IC50) on GST tagged PIP4KtypeIIA and on GST tagged PIP4KtypeIIB was 10 to 100 nM throughout.

(Values after patent US11919902B2, “Aryl-bipyridine amine derivatives as phosphatidylinositol phosphate kinase inhibitors” (HiberCell, Inc., priority 2017, dated 2024).)
